Patent US9745348B2 (The University of Manchester, priority 2011, dated 2017)
Like-named read-outs stand apart in the source and are kept apart here. Where no end group is shown, it is not given here. The star is where a group is joined. FITC = O=C1OC2(c3ccc(O)cc3Oc3cc(O)ccc32)c2ccc(NC(=S)*)cc21; Ahx = NCCCCCC(=O)O

Tests used:
[1] = system: fibroblasts Adult (HDFa) cells; assay: MTT viability of fibroblasts over three days; format: cell-based, human
Description: (§1) MTT assay: Cell viability and proliferation is widely assessed by the MTT assay as already described previously.
(§2) The fibroblasts cells, Neonatal (HDFn) and Adult (HDFa), were both grown until greater than 80% confluent. […] After 24 hour incubation the culture medium was replaced with fresh medium containing an appropriate amount of the peptide for investigation.
(§3) The viability of the fibroblasts, Adult (HDFa) and Neonatal (HDFn) cells in the presence of surfactants was tested by MTT assay over three days relative to control wells containing cells only.

[2] = system: E. coli, (EC) and S. aureus, (SA); assay: Bacterial growth by optical density, statements for both bacteria; format: cell-based, Escherichia coli; Staphylococcus aureus; conditions: 1 wt %; for antibacterial activity of surfactant alone: both SA and EC
Description: Bacteria E. coli, (EC) and S. aureus, (SA) were grown in LB media at 37° C. with continuous shaking for 24 hours. The bacterial concentration was then adjusted such that the absorbance at 600 (A600) was controlled to ca 0.2 unit. The bacteria suspensions with the peptides were incubated in 96-well tissue culture plates. The total medium volume in each well was […]. […] Controls with media only and media with bacteria only were run alongside the peptide bacteria mixed suspensions. Measurements were taken at time t=0, t=20 and t=72 hours using optical density cell plate reader. The optical density (OD) is representative of the relative amount of bacterial growth within the medium.
Interactions of bacteria E. coli, (EC) and S. aureus, (SA) with surfactants were also studied. The bacteria were grown in LB media at 37° C. with continuous shaking for 24 hours. The bacterial concentration was then adjusted such that the absorbance at 600 (A600) was controlled at ca 0.2 unit. The bacteria suspensions with surfactants were incubated in 96-well tissue culture plates. The total medium volume in each well was 200 μL. Again, surfactant concentrations of 1% were used. Controls with media only and media with bacteria only were run alongside the surfactant-bacteria mixed suspensions. Measurements were taken at time t=0, t=20 and t=72 hours using optical density cell plate reader again.

[3] = system: NIH 3T3 cells co-cultured with B. subtilis 168 or HL60 cancer cells; assay: Co-culture selectivity, distribution of FITC-labeled peptide by fluorescence microscopy; format: cell-based; conditions: 20 μM, 1 hour incubation
Description: To further verify the selective cytotoxicity of G(IIKK)3I-NH2 (SEQ ID NO: 3) in vitro, we added the FITC-labeled G(IIKK)3I-NH2 (SEQ ID NO: 3) to the two co-culture systems containing mammalian cell line NIH 3T3 (model host) and bacteria B. subtilis 168 or cancer cell line (HL 60). Specifically, NIH 3T3 cells were cultured at 37° C. with 5% CO2 in IMDM supplemented with 10% FBS. After reaching an over 80% confluence, the cells were transferred into a 6-well plate containing sterile coverslips at bottom to a final concentration of 1×10^5 cells/well. After overnight culture at 37° C., the medium was replaced with 1 ml B. subtilis 168 suspended in PBS with a density of 1×10^6 CFU/ml or 1 ml HL 60 cells suspended in PBS with a density of 1×10^5 cells/ml. Meanwhile, FITC-labeled G(IIKK)3I-NH2 (SEQ ID NO: 3) dissolved in the same buffer was also added to each well to the final concentration of 20 μM. […]
To further confirm the selective responses and cytotoxicity of the peptides, FITC-labeled G(IIKK)3I-NH2 (SEQ ID NO: 3) was synthesized according to the method described previously by Jullian M, et al (Julian et al 2009). […] After incubation for 1 hour, the distribution of FITC-G(IIKK)3I-NH2 (SEQ ID NO: 3) was observed using fluorescence microscopy and the results are shown in FIG. 12. […]

[4] = system: human red blood cells (hRBCs); assay: Hemolytic activity, hemoglobin release; format: cell-based; conditions: up to 250 μM, 1 h at 37° C.
Description: Peptide hemolytic activities were measured by determining hemoglobin release by 4% (v/v) suspensions of fresh human erythrocytes at 540 nm. Fresh human red blood cells (hRBCs) from volunteers were centrifuged and washed three times with PBS (pH7.4). 100 μL of hRBCs suspended in PBS at 8% (v/v) were mixed with 100 µL of different series of 2-fold diluted peptides in a sterile 96-well plate. The plates were incubated for 1 h at 37° C., and centrifuged at 1000 g for 5 min. 100 μL aliquots of the supernatant were transferred to new 96-well plates, and hemoglobin release monitored by measuring supernatant absorbance at 540 nm with a microplate ELISA Reader. As negative and positive controls, hRBCs in PBS and 0.1% Triton X-100 were employed. The hemolysis percentage was calculated using the follow equation: % hemolysis=[(Abs540 nm with peptide−Abs540 nm in PBS)/[(Abs540 nm with 0.1% Triton X-100−Abs540 nm in PBS)×100 Observing Bacterial Membrane Lysis by Fluorescence Microscopy

[5] = system: E. coli DH5α and B. subtilis 168; format: cell-based, Escherichia coli; Bacillus subtilis; conditions: 1 h
Description: To determine antibacterial activity of peptides, survival rate curves were constructed. Bacteria (E. coli DH5α or B. subtilis 168) were incubated with peptide at varying peptide concentrations at 37° C. for 1 h. Aliquots of 2 μL were withdrawn, diluted and spread on agar plates. After overnight incubation at 37° C., the surviving bacteria were expressed as the percentage of total cells, and survival curves drawn (FIG. 4). Controls were bacteria without peptide. The minimal inhibitory concentrations (MICs) of each peptide were measured by standard microdilution method. The test was done in sterile 96-well plates in a final volume of 200 μL. Aliquots (100 μL) of a bacterial suspension at 1×10^5 (colony-forming units (CFU)/ml) in culture medium were added to […] peptide solution (2-fold serial dilutions in 10 mM PBS buffer). […] The MIC was defined as the lowest concentration of peptide for which there was no visible growth. Each determination was performed at least three times.

[6] = MTT viability of fibroblasts over three days; format: cell-based, human; conditions: human, adult fibroblasts (HDFa cells)
Description: as §1, §2, §3

[7] = system: HeLa and HL60 cancer cell lines; conditions: 24 h
Description: Antitumor activities of peptides were measured using the 3-(4,5-dimethylthiazol-2-yl)-2,-diphenyl tetrazolium bromide (MTT) assay, and the IC50 value was calculated as the concentration of peptide that induced 50% growth inhibition compared to the untreated control.
HeLa and HL60 cells were seeded in 96-well plates (10^5 cells/well) in a complete medium [Iscove's modified dulbecco's medium (IMDM)] with 10% fetal bovine serum (FBS) for 24 h before peptide treatment. […] Following incubation with peptides, 20 μL of a 5 mg/ml solution MTT reagent was added to each well and incubated for 4 h at 37° C. After removing the supernatant, 150 μL of dimethyl sulfoxide (DMSO) was added to dissolve the formazan crystals that remained in the wells. The absorbance was determined using a microplate ELISA Reader at 570 nm. Wells without cells for blanking the spectrophotometer and the cells without peptides were taken as negative controls.

[8] = system: cytokine genes IL2 and IL8 of human lymphocytes; conditions: 10 μM, 1 h
Description: RT-PCR (Reverse Transcription Polymerase Chain Reaction and Real Time Polymerase Chain Reaction): To determine the related gene transcriptional activities about HeLa cell apoptosis and the lymphocyte immunological effects, RT-PCR assays were performed. […] Total RNA from the cells was extracted by Trizol following the manufacturer's instructions (Invitrogen, Britain). Total RNA (1 μg) was subject to cDNA synthesis with random primers (PrimeScript Reverse Transcriptase, Takara, Japan). Real-Time PCR was performed with power SYBR green PCR Master Mix kit (Applied Biosystems, American) using a 7500 real-time PCR system (Applied Biosystems, American) according to the protocol of the manufacturer, and the data were analyzed by relative quantitation of the 2^−ΔΔCt method. Transcriptional levels of related genes were normalized to the values of the house keeping gene β-actin.

in vitro = format: cell-based; conditions: human, neonatal fibroblasts (HDFn cells)
Description: as §1
The fibroblasts cells, Neonatal (HDFn) and Adult (HDFa), were both grown until greater than 80% confluent. The cells were then harvested and seeded into micro well plate at cell densities of 5000 cells/well in a volume […] of medium. After 24 hour incubation the culture medium was replaced with fresh medium containing an appropriate amount of the peptide for investigation.

For `CCCCCCCCCCCC[N+](C)(C)C.[Br-]` [Helix C12TAB, Dodecyl trimethylammonium bromide], the “MTT results (relative MTT reading)” value ([1]; HDFa, surfactant 1%, Day 1) was 0.00, the “MTT results (relative MTT reading)” value ([1]; HDFa, surfactant 1%, Day 2) was 0.00 and the “MTT results (relative MTT reading)” value ([1]; HDFa, surfactant 1%, Day 3) was 0.00. For the same compound, the “growth of bacteria after 72 hours” value ([2]; 72 hours) was “no growth of bacteria” and the “antibacterial activity of surfactant alone” value (“antibacterial activity” for short) [2] was “significant antibacterial activity”.

With “FITC-G(IIKK)3I-NH2: N-terminal FITC-labeled G(IIKK)3I-NH2 with 6-aminohexanoic acid (Ahx) between the last amino acid and the thiourea linkage ({FITC-Ahx}-GIIKKIIKKIIKKI-NH2; SMILES CC[C@H](C)[C@H](NC(=O)[C@H](CCCCN)NC(=O)[C@H](CCCCN)NC(=O)[C@@H](NC(=O)[C@@H](NC(=O)[C@H](CCCCN)NC(=O)[C@H](CCCCN)NC(=O)[C@@H](NC(=O)[C@@H](NC(=O)[C@H](CCCCN)NC(=O)[C@H](CCCCN)NC(=O)[C@@H](NC(=O)[C@@H](NC(=O)CNC(=O)CCCCCNC(=S)Nc1ccc2c(c1)C(=O)OC21c2ccc(O)cc2Oc2cc(O)ccc21)[C@@H](C)CC)[C@@H](C)CC)[C@@H](C)CC)[C@@H](C)CC)[C@@H](C)CC)[C@@H](C)CC)C(N)=O)” the “distribution of green fluorescence of FITC-labeled peptide in co-culture” value [3] was “concentrated in the bacterial clusters or the HL60 cells but not in any part of the 3T3 cells”.

With GIIKKI-NH2 [G(IIKK)I-NH2] the hemolytic activity [4] was “inactive”.

With “GIIKKIIKKIIKKI-NH2 [Helix G3, G(IIKK)3 I-NH2]” the “MICs (minimum inhibitory concentrations)” value [5] was 0.5 to 8 µM, the viability at 24 h, 5 µM [6] was 91% and the viability at 24 h, 25 µM [6] was 88%. It also gave a viability at 24 h, 50 µM [6] of 87%, a viability at 24 h, 100 µM [6] of 78% and a viability at 48 h, 5 µM [6] of 92%. The viability at 48 h, 25 µM [6] was 85%, the viability at 48 h, 50 µM [6] was 84% and the viability at 48 h, 100 µM [6] was 75%. For the same compound, the viability at 72 h, 5 µM [6] was 81%, the viability at 72 h, 25 µM [6] was 80% and the viability at 72 h, 50 µM [6] was 75%. For the same compound, the viability at 72 h, 100 µM [6] was 71%, the IC50 [7] was 4 to 25 µM and the “relative transcriptional levels of IL2 and IL8 of lymphocytes” value [8] was “lower or almost equal to that of control cells”.

In the case of “GIIKKIIKKIIKKIIKKI-NH2 [Helix G4, G(IIKK)4 I-NH2]”, the “MICs (minimum inhibitory concentrations)” value [5] is reported as 0.5 to 8 µM, the viability at 24 h, 5 µM [6] is reported as 90% and the viability at 24 h, 25 µM [6] is reported as 87%. For the same compound, the viability at 24 h, 50 µM [6] was 85%, the viability at 24 h, 100 µM [6] was 81% and the viability at 48 h, 5 µM [6] was 84%. For the same compound, the viability at 48 h, 25 µM [6] was 81%, the viability at 48 h, 50 µM [6] was 78% and the viability at 48 h, 100 µM [6] was 70%. The viability at 72 h, 5 µM [6] was 81%, the viability at 72 h, 25 µM [6] was 78% and the viability at 72 h, 50 µM [6] was 65%. The viability at 72 h, 100 µM [6] was 55%, the viability at 24 h, 5 µM (in vitro) was 95% and the viability at 24 h, 25 µM (in vitro) was 85%. It also gave a viability at 24 h, 50 µM (in vitro) of 81%, a viability at 24 h, 100 µM (in vitro) of 73% and a viability at 48 h, 5 µM (in vitro) of 92%. It also gave a viability at 48 h, 25 µM (in vitro) of 77%, a viability at 48 h, 50 µM (in vitro) of 71% and a viability at 48 h, 100 µM (in vitro) of 65%. The viability at 72 h, 5 µM (in vitro) was 79%, the viability at 72 h, 25 µM (in vitro) was 74% and the viability at 72 h, 50 µM (in vitro) was 65%. It also gave a viability at 72 h, 100 µM (in vitro) of 53% and an IC50 [7] of 4 to 25 µM.

In the case of cocamidopropyl aetaine [Tt], the “antibacterial activity” value [2] is reported as “some antibacterial influence”.

For sodium lauryl ether sulphate [SLES], the “MTT results (relative MTT reading)” value [1] was 0.00 and the “antibacterial activity” value [2] was “some antibacterial influence”.
